Experimental data taken from paper PMC12628652, “A Validated UPLC‐MS/MS Method for Monitoring Temozolomide and Perillyl Alcohol Metabolites in Biological Matrices: Insights From a Preclinical Pharmacokinetic Study” (Biomedical Chromatography, 2025).
One block for each compound: values may come before it.

Assay: Stability of analytes in rat plasma and tissue matrices (freeze-thaw, bench-top, autosampler)
Assay type: physicochemical
Conditions: for Stability (ER %) Autosampler: 10°C for 24 h; for Stability (ER %) Bench-top: room temperature for 6 h; for Stability (ER %) Freeze/thaw: three freeze–thaw cycles over 24-h intervals
Description: QC samples were prepared by spiking blank rat plasma with PA, AIC, and TMZ at three concentration levels: 30, 80, and 200 ng/mL. Internal standards (IS1 and IS2) were added to each sample at a final concentration of 100 ng/mL. Whole blood was obtained from untreated anesthetized rats that were euthanized as part of the study protocol. Blood samples were collected into heparinized tubes and centrifuged at 3500 rpm for 10 min at 20°C to separate plasma. Organs including the brain, lungs, kidneys, spleen, and liver were promptly excised and homogenized using a Marconi mechanical tissue homogenizer (5 mm probe) in phosphate‐buffered saline (PBS, pH 7.4) at a 1:5 (w/v) tissue‐to‐buffer ratio.
For each matrix sample, 50 μL of homogenate or plasma was mixed with 50 μL of internal standard (IS) solution (100 ng/mL), followed by the addition of the respective working solution to reach the target analyte concentration. The volume was adjusted to 1 mL using an appropriate solvent mixture. Samples were centrifuged again at 3500 rpm for 10 min at 4°C. The resulting supernatants were filtered through 0.22 μm membrane filters prior to chromatographic analysis. All calibration standards and QC samples were prepared freshly on the day of analysis to minimize analyte degradation.
The stability of PA, AIC, and TMZ in rat plasma was assessed under the following conditions using low, medium, and high QC levels: (1) Freeze–thaw stability: Three freeze–thaw cycles over 24‐h intervals; (2) Bench‐top stability: Storage at room temperature for 6 h; (3) Autosampler stability: Storage at 10°C for 24 h. Analytes were considered stable if the relative error (RE%) remained within ±15% (Tiwari and Tiwari [2010]).

[1] = rat brain homogenate, 200 ng/mL
[2] = rat kidney homogenate, 30 ng/mL
[3] = rat kidney homogenate, 80 ng/mL
[4] = rat kidney homogenate, 200 ng/mL
[5] = rat liver homogenate, 200 ng/mL
[6] = rat spleen homogenate, 30 ng/mL
[7] = rat spleen homogenate, 80 ng/mL
[8] = rat spleen homogenate, 200 ng/mL

Stability (ER %) Autosampler (rat brain homogenate, 30 ng/mL): 2.95%
Stability (ER %) Bench-top (rat brain homogenate, 30 ng/mL): 1.28%
Stability (ER %) Freeze/thaw (rat brain homogenate, 30 ng/mL): 1.93%
Stability (ER %) Autosampler (rat brain homogenate, 80 ng/mL): 2.37%
Stability (ER %) Bench-top (rat brain homogenate, 80 ng/mL): 10.03%
Stability (ER %) Freeze/thaw (rat brain homogenate, 80 ng/mL): 7.85%
Stability (ER %) Autosampler [1]: 4.49%
Stability (ER %) Bench-top [1]: 5.74%
Stability (ER %) Freeze/thaw [1]: 2.46%
Stability (ER %) Autosampler [2]: 4.24%
Stability (ER %) Bench-top [2]: 9.61%
Stability (ER %) Freeze/thaw [2]: 8.61%
Stability (ER %) Autosampler [3]: 3.42%
Stability (ER %) Bench-top [3]: 7.75%
Stability (ER %) Freeze/thaw [3]: 7.99%
Stability (ER %) Autosampler [4]: 3.31%
Stability (ER %) Bench-top [4]: 1.36%
Stability (ER %) Freeze/thaw [4]: 1.82%
Stability (ER %) Autosampler (rat liver homogenate, 30 ng/mL): 5.04%
Stability (ER %) Bench-top (rat liver homogenate, 30 ng/mL): 1.59%
Stability (ER %) Freeze/thaw (rat liver homogenate, 30 ng/mL): 1.52%
Stability (ER %) Autosampler (rat liver homogenate, 80 ng/mL): 2.92%
Stability (ER %) Bench-top (rat liver homogenate, 80 ng/mL): 2.49%
Stability (ER %) Freeze/thaw (rat liver homogenate, 80 ng/mL): 3.24%
Stability (ER %) Autosampler [5]: 4.45%
Stability (ER %) Bench-top [5]: 0.42%
Stability (ER %) Freeze/thaw [5]: 2.39%
Stability (ER %) Autosampler (rat lung homogenate, 30 ng/mL): 4.01%
Stability (ER %) Bench-top (rat lung homogenate, 30 ng/mL): 1.39%
Stability (ER %) Freeze/thaw (rat lung homogenate, 30 ng/mL): 2.68%
Stability (ER %) Autosampler (rat lung homogenate, 80 ng/mL): 4.14%
Stability (ER %) Bench-top (rat lung homogenate, 80 ng/mL): 2.94%
Stability (ER %) Freeze/thaw (rat lung homogenate, 80 ng/mL): 4.23%
Stability (ER %) Autosampler (rat lung homogenate, 200 ng/mL): 3.04%
Stability (ER %) Bench-top (rat lung homogenate, 200 ng/mL): 8.02%
Stability (ER %) Freeze/thaw (rat lung homogenate, 200 ng/mL): 6.65%
Stability (ER %) Autosampler (rat plasma, 30 ng/mL): 10.61%
Stability (ER %) Bench-top (rat plasma, 30 ng/mL): 5.32%
Stability (ER %) Freeze/thaw (rat plasma, 30 ng/mL): 1.26%
Stability (ER %) Autosampler (rat plasma, 80 ng/mL): 14.01%
Stability (ER %) Bench-top (rat plasma, 80 ng/mL): 11.90%
Stability (ER %) Freeze/thaw (rat plasma, 80 ng/mL): 8.67%
Stability (ER %) Autosampler (rat plasma, 200 ng/mL): 3.21%
Stability (ER %) Bench-top (rat plasma, 200 ng/mL): 13.82%
Stability (ER %) Freeze/thaw (rat plasma, 200 ng/mL): 4.45%
Stability (ER %) Autosampler [6]: 3.25%
Stability (ER %) Bench-top [6]: 2.55%
Stability (ER %) Freeze/thaw [6]: 2.72%
Stability (ER %) Autosampler [7]: 2.24%
Stability (ER %) Bench-top [7]: 6.84%
Stability (ER %) Freeze/thaw [7]: 5.52%
Stability (ER %) Autosampler [8]: 3.41%
Stability (ER %) Bench-top [8]: 9.57%
Stability (ER %) Freeze/thaw [8]: 8.51%
Structure (SMILES): C=C(C)[C@@H]1CC=C(C(=O)O)CC1 [PA, perillic acid]

Stability (ER %) Autosampler (rat brain homogenate, 30 ng/mL): 2.04%
Stability (ER %) Bench-top (rat brain homogenate, 30 ng/mL): 7.13%
Stability (ER %) Freeze/thaw (rat brain homogenate, 30 ng/mL): 8.55%
Stability (ER %) Autosampler (rat brain homogenate, 80 ng/mL): 4.29%
Stability (ER %) Bench-top (rat brain homogenate, 80 ng/mL): 8.22%
Stability (ER %) Freeze/thaw (rat brain homogenate, 80 ng/mL): 1.79%
Stability (ER %) Autosampler [1]: 4.57%
Stability (ER %) Bench-top [1]: 9.26%
Stability (ER %) Freeze/thaw [1]: 6.76%
Stability (ER %) Autosampler [2]: 4.28%
Stability (ER %) Bench-top [2]: 2.11%
Stability (ER %) Freeze/thaw [2]: 1.29%
Stability (ER %) Autosampler [3]: 5.42%
Stability (ER %) Bench-top [3]: 8.94%
Stability (ER %) Freeze/thaw [3]: 8.45%
Stability (ER %) Autosampler [4]: 5.94%
Stability (ER %) Bench-top [4]: 8.76%
Stability (ER %) Freeze/thaw [4]: 6.46%
Stability (ER %) Autosampler (rat liver homogenate, 30 ng/mL): 4.35%
Stability (ER %) Bench-top (rat liver homogenate, 30 ng/mL): 9.13%
Stability (ER %) Freeze/thaw (rat liver homogenate, 30 ng/mL): 1.67%
Stability (ER %) Autosampler (rat liver homogenate, 80 ng/mL): 1.74%
Stability (ER %) Bench-top (rat liver homogenate, 80 ng/mL): 3.28%
Stability (ER %) Freeze/thaw (rat liver homogenate, 80 ng/mL): 9.53%
Stability (ER %) Autosampler [5]: 2.34%
Stability (ER %) Bench-top [5]: 8.71%
Stability (ER %) Freeze/thaw [5]: 7.67%
Stability (ER %) Autosampler (rat lung homogenate, 30 ng/mL): 2.22%
Stability (ER %) Bench-top (rat lung homogenate, 30 ng/mL): 7.93%
Stability (ER %) Freeze/thaw (rat lung homogenate, 30 ng/mL): 5.74%
Stability (ER %) Autosampler (rat lung homogenate, 80 ng/mL): 2.84%
Stability (ER %) Bench-top (rat lung homogenate, 80 ng/mL): 8.37%
Stability (ER %) Freeze/thaw (rat lung homogenate, 80 ng/mL): 1.04%
Stability (ER %) Autosampler (rat lung homogenate, 200 ng/mL): 3.33%
Stability (ER %) Bench-top (rat lung homogenate, 200 ng/mL): 8.49%
Stability (ER %) Freeze/thaw (rat lung homogenate, 200 ng/mL): 6.67%
Stability (ER %) Autosampler (rat plasma, 30 ng/mL): 12.36%
Stability (ER %) Bench-top (rat plasma, 30 ng/mL): 6.77%
Stability (ER %) Freeze/thaw (rat plasma, 30 ng/mL): 10.24%
Stability (ER %) Autosampler (rat plasma, 80 ng/mL): 13.46%
Stability (ER %) Bench-top (rat plasma, 80 ng/mL): 10.93%
Stability (ER %) Freeze/thaw (rat plasma, 80 ng/mL): 5.34%
Stability (ER %) Autosampler (rat plasma, 200 ng/mL): 3.48%
Stability (ER %) Bench-top (rat plasma, 200 ng/mL): 9.03%
Stability (ER %) Freeze/thaw (rat plasma, 200 ng/mL): 1.04%
Stability (ER %) Autosampler [6]: 4.01%
Stability (ER %) Bench-top [6]: 1.42%
Stability (ER %) Freeze/thaw [6]: 8.36%
Stability (ER %) Autosampler [7]: 4.98%
Stability (ER %) Bench-top [7]: 3.74%
Stability (ER %) Freeze/thaw [7]: 4.43%
Stability (ER %) Autosampler [8]: 3.13%
Stability (ER %) Bench-top [8]: 1.52%
Stability (ER %) Freeze/thaw [8]: 1.32%
Structure (SMILES): NC(=O)c1[nH]cnc1N [AIC, 5‐aminoimidazole‐4‐carboxamide]
